# Laboratory results taken from EP1232756A1, “DRUGS, DRINKS OR FOODS” (Takara Shuzo Co, Ltd., priority 1999, dated 2001).
# Marks after values point to notes of the source that are not given here.
# Columns and labels:
# Assay type in all cases: in vivo
# [1] = test system: female SD rat; assay: Agonistic (estrogenic) activity: immature rat uterine weight (Example 1(2)); conditions: for Uterine weight / Ratio: substance alone; for Uterine weight: once a day for 3 days, mean ± standard error; for Ratio: uterine weight vs control group (100%), 3 days
# Experimental: A 17-days old female SD rat (purchased from Japan SLC) was received together with its mother, weaned at 20 days of age, and subjected to experiments from the next day. Five ml per kg body weight of EGCG (Sigma) or bisphenol-A (hereinafter referred to as BisA, Tokyo Kasei Kogyo) suspended in peanut oil (Nacalai Tesque) was administered orally and forcibly. Peanut oil was administered to a control rat in a similar manner. Administration was carried out once a day for three successive days. The uterine removed 24 hours after the last administration was weighed. BisA or EGCG (80 or 800 mg/kg) was administered. […]
# [2] = test system: female SD rat; assay: Antagonistic (anti-estrogenic) activity of EGCG against bisphenol-A, immature rat uterine weight (Example 1(3)); conditions: BisA 800 mg/kg + EGCG 800 mg/kg oral at the same time
# Experimental: A 17-days old female SD rat (purchased from Japan SLC) was received together with its mother, weaned at 20 days of age, and subjected to experiments from the next day. Five ml per kg body weight of EGCG (Sigma) or bisphenol-A (hereinafter referred to as BisA, Tokyo Kasei Kogyo) suspended in peanut oil (Nacalai Tesque) was administered orally and forcibly. Peanut oil was administered to a control rat in a similar manner. Administration was carried out once a day for three successive days. The uterine removed 24 hours after the last administration was weighed. BisA (800 mg/kg) and EGCG (800 mg/kg) were administered at the same time.
# [3] = test system: female SD rat; assay: Anti-estrogenic activity of solution of EGCG in ethanol against bisphenol-A, rat uterine weight (Example 2); conditions: for Uterine weight: 30 minutes before BisA; for Ratio: vs control (100%)
# Experimental: A 17-days old female SD rat (purchased from Japan SLC) was received together with its mother, weaned at 20 days of age, and subjected to experiments from the next day. BisA was weighed such that it would be administered at 200 or 40 mg/kg and dissolved in a small volume of ethanol. Peanut oil was added thereto to result in a final ethanol concentration of 5%. The resulting mixture was orally administered for three successive days. The uterine removed on the next day was weighed. EGCG was dissolved by adding ethanol and water was then added thereto to adjust the final ethanol concentration to 10%. The solution was orally administered on the day before the administration of BisA and 30 minutes before each of the successive administrations of BisA.
# [4] = test system: female SD rat; assay: Anti-estrogenic activity of solution of EGCG in ethanol against 4-nonylphenol, rat uterine weight (Example 3); conditions: NP 50 mg/kg oral + EGCG 200 mg/kg oral in 10% ethanol
# Experimental: A 16-days old female SD rat (Japan SLC) was purchased together with its mother, weaned at 19 days of age, and subjected to experiments from the next day.
# 4-Nonylphenol (hereinafter referred to as NP) was weighed such that it would be administered at 50 mg/kg and diluted by adding peanut oil thereto. The resulting mixture was orally administered for three successive days. The uterine removed on the day after the third administration day was weighed. EGCG was dissolved by adding ethanol and water was then added thereto to adjust the final ethanol concentration to 10%. The solution was orally administered 90 minutes before the administration of NP.
# [5] = test system: female SD rat; assay: Effect of ethanol concentration on anti-estrogenic activity of EGCG, rat uterine weight (Example 4); conditions: for Uterine weight: 90 minutes before BisA; for Ratio: vs control (100%)
# Experimental: (§1) A 16-days old female SD rat (Japan SLC) was purchased together with its mother, weaned at 19 days of age, and subjected to experiments from the next day. BisA was weighed such that it would be administered at 40 mg/kg and dissolved in a small volume of ethanol. Peanut oil was added thereto to result in a final ethanol concentration of 5%. The resulting mixture was subcutaneously administered for three successive days. The uterine removed on the day after the third administration day was weighed. EGCG (200 mg/kg) was dissolved by adding ethanol and water was then added thereto to adjust the final ethanol concentration to 10, 5, 1, 0.5 or 0%. The solution was orally administered 90 minutes before the administration of BisA.
# [6] = test system: female SD rat; assay: Anti-estrogenic activity of solution of EGCG in ethanol, subcutaneous BisA, rat uterine weight (Example 5); conditions: for Uterine weight / Ratio: 30 minutes before BisA; for Ratio: vs control (100%)
# Experimental: as §1, with “10” for “10, 5, 1, 0.5”, “30” for “90”
# [7] = test system: female SD rat; assay: Dose dependency of anti-estrogenic activity of solution of EGCG in ethanol, rat uterine weight (Example 6); conditions: for Uterine weight: 30 minutes before BisA; for Ratio: vs control (100%)
# Experimental: as §1, with “subcutaneously or orally” for “subcutaneously”, “EGCG” for “EGCG (200 mg/kg)”, “10%.” for “10, 5, 1, 0.5 or 0%.”, “30” for “90”
# [8] = BisA 40 mg/kg oral + EGCG 100 mg/kg oral in 10% ethanol
# [9] = BisA 200 mg/kg oral + EGCG 100 mg/kg oral in 10% ethanol
# [10] = BisA 200 mg/kg oral + EGCG 200 mg/kg oral in 10% ethanol
# [11] = BisA 40 mg/kg s.c. + EGCG 200 mg/kg oral in 0 % ethanol
# [12] = BisA 40 mg/kg s.c. + EGCG 200 mg/kg oral in 0.5% ethanol
# [13] = BisA 40 mg/kg s.c. + EGCG 200 mg/kg oral in 1 % ethanol
# [14] = BisA 40 mg/kg s.c. + EGCG 200 mg/kg oral in 5 % ethanol
# [15] = BisA 40 mg/kg s.c. + EGCG 200 mg/kg oral in 10 % ethanol
# [16] = BisA 40 mg/kg s.c. + EGCG 200 mg/kg oral in 0% ethanol
# [17] = BisA 40 mg/kg s.c. + EGCG 200 mg/kg oral in 10% ethanol
# [18] = BisA 40 mg/kg oral + EGCG 40 mg/kg oral in 10% ethanol
# [19] = BisA 40 mg/kg subcutaneous + EGCG 40 mg/kg oral in 10% ethanol
# [20] = BisA 40 mg/kg subcutaneous + EGCG 100 mg/kg oral in 10% ethanol
structure (smiles),measurement,setting,value
"O=C(O[C@@H]1Cc2c(O)cc(O)cc2O[C@@H]1c1cc(O)c(O)c(O)c1)c1cc(O)c(O)c(O)c1 [EGCG, epigallocatechin gallate]",increased uterine weight (in words),"[1]; EGCG alone, 80 or 800 mg/kg oral",did not result in increased uterine weight
same,Uterine weight,[1]; 80 mg/kg oral in peanut oil,42.2 ± 1.7 mg
same,Uterine weight,[1]; 800 mg/kg oral in peanut oil,39.3 ± 3.2 mg
same,Ratio,[1]; 80 mg/kg oral,104%
same,Ratio,[1]; 800 mg/kg oral,97%
same,Uterine weight,"[2]; in peanut oil, mean ± standard error",43.0 ± 2.7 mg
same,Ratio,[2]; vs control (100%),116%
same,Uterine weight,[3]; [8],41.2 ± 2.2 mg
same,Uterine weight,[3]; [9],47.4 ± 2.6 mg
same,Uterine weight,[3]; [10],39.8 ± 4.5 mg
same,Ratio,[3]; [8],95%
same,Ratio,[3]; [9],109%
same,Ratio,[3]; [10],92%
same,Uterine weight,[4]; 90 minutes before NP,33.7 ± 1.9 mg
same,Ratio,[4]; vs control (100%),109%
same,Uterine weight,[5]; [11],43.3 ± 1.8 mg
same,Uterine weight,[5]; [12],40.9 ± 1.8 mg
same,Uterine weight,[5]; [13],40.1 ± 2.0 mg
same,Uterine weight,[5]; [14],37.6 ± 1.8 mg
same,Uterine weight,[5]; [15],37.0 ± 1.3 mg
same,Ratio,[5]; [11],161%
same,Ratio,[5]; [12],152%
same,Ratio,[5]; [13],149%
same,Ratio,[5]; [14],140%
same,Ratio,[5]; [15],138%
same,Uterine weight,[6]; [16],50.9 ± 2.2 mg
same,Uterine weight,[6]; [17],36.4 ± 1.4 mg
same,suppression of the increase in uterine weight (in words),[6]; BisA 40 mg/kg s.c. + EGCG 200 mg/kg oral without ethanol,the increase was not suppressed
same,Ratio,[6]; [16],165%
same,Ratio,[6]; [17],118%
same,Uterine weight,[7]; [18],34.8 ± 2.8 mg
same,Uterine weight,[7]; [8],33.0 ± 4.4 mg
same,Uterine weight,[7]; [19],44.4 ± 1.5 mg
same,Uterine weight,[7]; [20],39.6 ± 1.0 mg
same,Ratio,[7]; [18],106%
same,Ratio,[7]; [8],101** %
same,Ratio,[7]; [19],136%
same,Ratio,[7]; [20],121*** %
